PMC11476419, “Analysis of Punicalin and Punicalagin Interaction with PDIA3 and PDIA1” (International Journal of Molecular Sciences, 2024)

Assays:
U87 MG cells [1] = assay: Cell counting (crystal violet); assay type: cell-based, human; settings: 5 µM and 20 µM, 24 h, 48 h, 72 h
Experimental: The number of cells was evaluated after 24 h, 48 h, and 72 h of treatment with punicalin at the concentration of 5 µM and 20 µM (Figure 5b). […] However, an increase in the cell number occurred after 72 h of treatment with punicalin at a 5 µM concentration.
T98G and U-87 MG cells were seeded into 12-well plates (70,000 cells/well) and treated with 5 µM and 20 µM concentrations of punicalin for 24 h, 48 h, and 72 h. At the end of incubation, the cells were washed with PBS (Sigma-Aldrich, cat. D8662), fixed with cold methanol for 20 min, stained with 0.1% crystal violet in methanol/PBS (ratio 1:4) at room temperature for 1 h, and washed again in PBS. To estimate the number of cells remaining in each well, the crystal violet was solubilized by adding a methanol/water solution (50% v/v) and the absorbance at 595 nm was measured.

PDIA3 = target: T1, PDIA3 (Homo sapiens, UniProt P30101); assay: Insulin turbidity assay, disulfide reductase activity; assay type: biochemical; settings: insulin substrate, PDIA3 1600 nM, reducing conditions
T1 construct: The mature recombinant form (devoid of the N-terminal presence) of the human PDIA3 protein was expressed and purified; made in house
T1 sequence (P30101 25-505): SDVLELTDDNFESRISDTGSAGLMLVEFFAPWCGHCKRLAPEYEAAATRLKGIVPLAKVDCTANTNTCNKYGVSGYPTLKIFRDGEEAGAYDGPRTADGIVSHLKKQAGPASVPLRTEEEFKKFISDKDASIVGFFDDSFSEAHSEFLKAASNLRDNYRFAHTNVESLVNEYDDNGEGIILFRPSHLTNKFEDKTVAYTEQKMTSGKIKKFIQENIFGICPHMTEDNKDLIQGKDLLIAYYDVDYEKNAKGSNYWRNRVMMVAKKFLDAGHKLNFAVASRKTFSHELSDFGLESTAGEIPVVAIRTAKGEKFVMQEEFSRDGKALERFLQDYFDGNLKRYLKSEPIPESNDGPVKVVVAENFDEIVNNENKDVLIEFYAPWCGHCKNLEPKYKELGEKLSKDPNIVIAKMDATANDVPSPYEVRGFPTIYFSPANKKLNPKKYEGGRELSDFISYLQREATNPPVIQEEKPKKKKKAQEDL
Experimental: To further evaluate the inhibitory effect of punicalin and punicalagin on the enzymatic activity of the two proteins, we performed a different assay using insulin, a physiologically more appropriate substrate. The results obtained are reported in Figure 4 and show again a lesser inhibitory effect of punicalin compared to punicalagin, as observed with the glutathione-based assay.
PDI disulfide reductase activity was assayed by measuring the reduction of insulin catalyzed by PDIs with DTT. A 50 μM stock solution of each PDI was reduced using TCEP (5 mM final concentration) for 90 min at room temperature. Aliquots of the stock solution were diluted in the incubation mixture (PDIA1 1.6 µM and PDIA3 3.2 µM) containing sodium phosphate buffer (100 mM sodium phosphate, 2 mM EDTA, pH 7.0) added with punicalin/punicalagin (concentration ranging from 0 to 50 µM) and incubated at 37 °C for 1 h. After incubation, an equal volume of the 2× reaction mixture (consisting of DTT 50 μM and human insulin 0.32 mM) was added. Protein activity was evaluated by monitoring the increase in turbidity of the solutions at 600 nm.
In both assays, the inhibition constants were extrapolated by GraphPad Prism 8.0 software (GraphPad Software, San Diego, CA, USA), plotting the obtained data as logarithm dose–response curves.

T98G cells = assay: Cell viability by MTT assay; assay type: cell-based, human
Experimental: (§1) The cell viability assay was used to evaluate the effect of punicalin as a PDI inhibitor. T98G and U87 MG glioblastoma cell lines were treated with increasing concentrations of punicalin, and the reduction in MTT substrate was determined after 24 h, 48 h, and 72 h. […] Here, we compared the ability of punicalin with that of punicalagin to prevent the growth of these cells (Figure 5).
(§2) T98G and U-87 MG cells were seeded into 96-well plates (10.000 cells/well). The effect of punicalin, at the final concentration of 1 µM to 20 µM, was evaluated on cell viability after 24 h and 48 h of incubation. To assess cell viability, the enzymatic reduction of MTT (3-(4,5-dimethylthiazol-2-yl)-2,5-diphenyl-2H-tetrazolium bromide) (Sigma-Aldrich, Milan, Italy, cat. M2128) to MTT formazan was used. Cell cultures were further incubated for 2 h in culture medium containing 0.5 mg/mL MTT. After 2 h of incubation, the solution was removed and the blue MTT formazan product was dissolved in DMSO (Sigma-Aldrich, cat. D8418). After 30 min at room temperature, the absorbance of the formazan solution was spectrophotometrically read at 570 nm using an Appliskan® plate reader (Thermo Fisher Scientific, Monza, Italy).

U87 MG cells [2] = assay: Cell viability by MTT assay; assay type: cell-based, human; settings: 1 µM to 20 µM, 24 h, 48 h, 72 h
Experimental: as §1, §2

In the case of `O=C1OC[C@H]2OC(O)[C@H](O)[C@@H](O)[C@@H]2OC(=O)c2cc(O)c(O)c(O)c2-c2c(O)c(O)c3oc(=O)c4c(c(O)c(O)c5oc(=O)c2c3c54)-c2c1cc(O)c(O)c2O` (mixture of isomers) [Punicalin, punicalin], the “effect on cell number” value (U87 MG cells [1]) is reported as “the effect is evident only at the highest concentration used”, the IC50 (PDIA3) is reported as 28.7 µM and the “effect on cell viability (MTT)” value (T98G cells; 1 µM to 20 µM, 24 h, 48 h, 72 h) is reported as “concentration- and time-dependent decrease in cell viability”. For the same compound, the “effect on cell viability” value (T98G cells; 20 µM) was “significantly reduced the cell viability” and the “effect on cell viability (MTT)” value (U87 MG cells [2]) was “the effect becomes evident only at the highest concentration”.
